Test results published in ChEMBL document CHEMBL1158784, “Sorbicillin analogues and related dimeric compounds from Penicillium notatum” (2005).
Activity calls are given as the source filed them. The calls are words filed in the database; no cut-off is given here.

How the values were obtained:
Chlorella vulgaris = assay: Antimicrobial activity against Chlorella vulgaris at 20 ug/9 mm disk by agar diffusion method; type: functional, organism-based
Chlorella sorokiniana = assay: Antimicrobial activity against Chlorella sorokiniana at 20 ug/9 mm disk by agar diffusion method; type: functional, organism-based
Escherichia coli = assay: Antimicrobial activity against Escherichia coli at 20 ug/9 mm disk by agar diffusion method; type: functional, organism-based
Candida albicans = assay: Antimicrobial activity against Candida albicans at 20 ug/9 mm disk by agar diffusion method; type: functional
Desmodesmus subspicatus = assay: Antimicrobial activity against Scenedesmus subspicatus at 20 ug/9 mm disk by agar diffusion method; type: functional, organism-based
[1] = test system: Streptomyces viridochromogenes; assay: Antimicrobial activity against Streptomyces viridochromogenes Tu57 at 20 ug/9 mm disk by agar diffusion method; type: functional, organism-based
Bacillus subtilis = assay: Antimicrobial activity against Bacillus subtilis at 20 ug/9 mm disk by agar diffusion method; type: functional
Staphylococcus aureus = assay: Antimicrobial activity against Staphylococcus aureus at 20 ug/9 mm disk by agar diffusion method; type: functional
Rhizomucor miehei = assay: Antimicrobial activity against Mucor miehei at 20 ug/9 mm disk by agar diffusion method; type: functional, organism-based

SMILES	Activity (Chlorella vulgaris)	Activity (Chlorella sorokiniana)	Activity (Escherichia coli)	inhibition zone (IZ) (Candida albicans) [mm]	Activity (Desmodesmus subspicatus)	Activity [1]	inhibition zone (IZ) (Bacillus subtilis) [mm]	inhibition zone (IZ) (Staphylococcus aureus) [mm]	Activity (Rhizomucor miehei)	Activity (Candida albicans)	Activity (Bacillus subtilis)	Activity (Staphylococcus aureus)
C/C=C/C=C/C(O)=C1\C(=O)[C@]2(C)C(=O)[C@@](C)(O)[C@H]1[C@H]1OC(=O)C[C@]12CO [REZISHANONE A]	inactive	inactive	inactive	13	inactive	inactive	12	12	inactive			
C/C=C/CCC(=O)c1cc(C)c(O)c(C)c1O	inactive	inactive	inactive	13	inactive	inactive	12	12	inactive			
C/C=C/C=C/C(O)=C1/C(=O)[C@](C)(O)C(=O)C(C)=C1O	inactive	inactive	inactive	13	inactive	inactive	12	12	inactive			
C/C=C/C=C/C(=O)C1=C(C)C(=O)C(O)=C(C)C1=O	inactive	inactive	inactive		inactive	inactive			inactive	inactive	inactive	inactive
C/C=C/C=C/C(=O)c1c(C)c(O)c(O)c(C)c1O [SOHIRNONE B]	inactive	inactive	inactive	13	inactive	inactive	12	12	inactive			
C/C=C/CC/C(O)=C1\C(=O)[C@]2(C)C(=O)[C@@](C)(O)[C@H]1C[C@@H]2OCC [REZISHANONE D]	inactive	inactive	inactive	13	inactive	inactive	12	12	inactive			
C/C=C/C=C/C(O)=C1/C(=O)[C@]2(C)C(=O)[C@@](C)(O)[C@H]1[C@H]1[C@]2(C(=O)CC/C=C/C)C(=O)C(C)=C(O)[C@@]1(C)O [BISVERTINOQUINOL]	inactive	inactive	inactive	13	inactive	inactive	12	12	inactive			
C/C=C/C=C/C(O)=C1\C(=O)C(C)=C(O)[C@@](C)(O)C1=O	inactive	inactive	inactive		inactive	inactive			inactive	inactive	inactive	inactive
CC(C)=CCC/C(C)=C/CC/C(C)=C/C[C@@]12O[C@@H]1[C@H](O)C(C)=CC2=O	inactive	inactive	inactive	13	inactive	inactive	12	12	inactive			
C/C=C/CCC(=O)c1cc(C)c(O)cc1O [SOHIRNONE A]	inactive	inactive	inactive	13	inactive	inactive	12	12	inactive			
C/C=C/C=C/C(O)=C1\C(=O)[C@]2(C)C(=O)[C@@](C)(O)[C@H]1C[C@@H]2OCCCC [REZISHANONE B]	inactive	inactive	inactive	13	inactive	inactive	12	12	inactive			
C/C=C/C=C/C(=O)C1=C[C@@]2(C)[C@H]3C(C(=O)/C=C/C=C/C)=C(O)C(C)=C(O)[C@@]3(C)O[C@@]2(O)[C@@](C)(O)C1=O	inactive	inactive	inactive		inactive	inactive			inactive	inactive	inactive	inactive
C/C=C/C=C/C(=O)[C@]12C(=O)C(C)=C(O)[C@@](C)(O)[C@H]1[C@H]1\C(=C(O)/C=C/C=C/C)C(=O)[C@]2(C)C(=O)[C@@]1(C)O [BISORBICILLINOL]	inactive	inactive	inactive	13	inactive	inactive	12	12	inactive			
C/C=C/C=C/C(O)=C1\C(=O)[C@]2(C)C(=O)[C@@](C)(O)[C@H]1C[C@@H]2OCC [REZISHANONE C]	inactive	inactive	inactive	13	inactive	inactive	12	12	inactive			
C/C=C/CCC(=O)c1c(C)c(O)c(O)c(C)c1O	inactive	inactive	inactive		inactive	inactive			inactive	inactive	inactive	inactive
